Earlier results, collected in patent US6703022B2, “Composition and method useful for treating colic” (Lev Laboratories, Inc., priority 1999, dated 2004).

Tested on: mice
Conditions: at certain doses

## C=CCc1ccc(OC)cc1 [Estragole, 1-allyl-4-methoxybenzene]
  mutagenic and carcinogenic effects: mutagenic and carcinogenic effects
